Reference: patent EP4810052A2, “HCRHR2 SELECTIVE POLYPEPTIDES” (Gubra A/S, priority 2023, dated 2026)
Where two headings read alike, the source gives them in different places. Starred links: 1 amine or outer side, 2 acyl side, 3 side chain; linkers in the order of their positions; H or OH if unused. Non-standard residues stand in square brackets, D forms with d. Residues, ends and D or L forms follow the SMILES beside them. Groups on a side chain read outwards from the residue. *: point of attachment. C20 diacid = O=C(O)CCCCCCCCCCCCCCCCCCC(=O)*; γGlu = O=C(O)[C@H](CCC(=O)[*:2])N[*:1]; NMeI = CC[C@H](C)[C@H](NC)C(=O)O; Nle = CCCC[C@H](N)C(=O)O; AEEA = NCCOCCOCC(=O)O; Aib = CC(C)(N)C(=O)O

What was measured:
hCRHR1 = target: T1, hCRHR1 (Homo sapiens, UniProt P34998); assay: HTRF cAMP assay, determination of hCRHR1 potency (peptide libraries 5 conc., purified peptides 11 conc.); assay type: cell-based; conditions: Table 4, library peptides having X^38 = Nle; read-out: hCRHR1 pEC50 (converted)
T1 sequence (P34998 24-415): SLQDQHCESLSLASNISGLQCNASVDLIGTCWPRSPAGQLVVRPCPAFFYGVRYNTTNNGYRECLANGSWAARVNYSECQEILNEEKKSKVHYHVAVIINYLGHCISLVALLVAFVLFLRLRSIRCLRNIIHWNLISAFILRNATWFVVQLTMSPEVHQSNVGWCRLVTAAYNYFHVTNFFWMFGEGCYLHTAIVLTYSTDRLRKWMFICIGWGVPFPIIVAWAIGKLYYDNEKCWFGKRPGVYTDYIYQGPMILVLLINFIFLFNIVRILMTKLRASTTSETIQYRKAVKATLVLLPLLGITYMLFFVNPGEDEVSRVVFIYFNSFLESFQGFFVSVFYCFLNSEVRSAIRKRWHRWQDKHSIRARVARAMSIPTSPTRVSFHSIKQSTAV
From the text: HTRF (CisBio) cAMP assay: The assay technology has thoroughly been described in the CisBio HTRF cAMP assay Kit manual (# 62AM4PEC). Briefly, time resolved fluorescence technic was applied to measure cAMP. This technic is based on a competitive immunoassay using cryptate-labelled anti-cAMP antibody and d2-labeled cAMP. In the absence of cellular cAMP, the anti-cAMP cryptate conjugate may get into proximity to cAMP-d2 conjugate and energy (FRET) can be transferred from cryptate to d2. CHO-K1 cells stably expressing the human corticotropin-releasing hormone receptor 1 (Eurofins/DiscoverX Cat #95-0047C2 hCRHR1 stable monoclonal cell lines) were used as cells in suspension, brought to life from frozen cell stocks immediately before assay performance. […] Concentration-response evaluation of compounds was performed with 5 concentrations of agonist peptides and EC50 values were calculated by nonlinear regression using sigmoid concentration-response with variable slope. Concentration-response evaluation of compounds was performed with 11 concentrations of agonist peptides and EC50 values were calculated by nonlinear regression using sigmoid concentration-response with variable slope.

hCRHR2 = target: T2, hCRHR2 (Homo sapiens, UniProt Q13324); assay: HTRF cAMP assay, determination of hCRHR2 potency (peptide libraries 5 conc., purified peptides 11 conc.); assay type: cell-based; conditions: for Selectivity ratio (hCRHR1/ hCRHR2): hCRHR1-EC50/hCRHR2-EC50
T2 sequence (Q13324 1-411): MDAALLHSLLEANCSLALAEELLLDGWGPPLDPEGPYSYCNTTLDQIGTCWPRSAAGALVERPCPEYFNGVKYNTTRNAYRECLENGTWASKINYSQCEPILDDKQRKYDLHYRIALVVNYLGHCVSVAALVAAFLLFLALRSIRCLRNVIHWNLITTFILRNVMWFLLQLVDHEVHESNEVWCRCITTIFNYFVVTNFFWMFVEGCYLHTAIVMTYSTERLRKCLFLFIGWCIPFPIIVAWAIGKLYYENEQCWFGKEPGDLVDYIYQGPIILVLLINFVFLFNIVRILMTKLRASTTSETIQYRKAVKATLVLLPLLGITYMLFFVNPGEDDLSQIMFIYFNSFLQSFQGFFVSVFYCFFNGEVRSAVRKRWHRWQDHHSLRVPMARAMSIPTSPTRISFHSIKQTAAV
From the text: HTRF (CisBio) cAMP assay: The assay technology has thoroughly been described in the CisBio HTRF cAMP assay Kit manual (# 62AM4PEC). Briefly, time resolved fluorescence technic was applied to measure cAMP. This technic is based on a competitive immunoassay using cryptate-labelled anti-cAMP antibody and d2-labeled cAMP. In the absence of cellular cAMP, the anti-cAMP cryptate conjugate may get into proximity to cAMP-d2 conjugate and energy (FRET) can be transferred from cryptate to d2.
CHO-K1 cells stably expressing the human corticotropin-releasing hormone receptor 2 (Eurofins/DiscoverX, Cat #95-0048C2 hCRHR2 stable monoclonal cell lines) were used as cells in suspension, brought to life from frozen cell stocks immediately before assay performance.
Concentration-response evaluation of compounds was performed with 5 concentrations of agonist peptides and EC50 values were calculated by nonlinear regression using sigmoid concentration-response with variable slope.
Concentration-response evaluation of compounds was performed with 11 concentrations of agonist peptides and EC50 values were calculated by nonlinear regression using sigmoid concentration-response with variable slope.

[1] = purified peptides, CHO-K1 cells stably expressing hCRHR2, cAMP HTRF, read-out: hCRHR2 EC50

| EC50 (hCRHR1) [nM] | EC50 (hCRHR2; Table 4, library peptides having X^38 = Nle, read-out: hCRHR2 pEC50 (converted)) [nM] | Selectivity ratio (hCRHR1/ hCRHR2) (hCRHR2) | EC50 (hCRHR2; [1]) [nM] | SMILES |
| --- | --- | --- | --- | --- |
| 63100 | 0.0316 | – | – | CCCC[C@H](NC(=O)[C@@H](NC(=O)[C@H](CCC(=O)O)NC(=O)C(C)(C)NC(=O)[C@H](CC(N)=O)NC(=O)[C@@H](NC(=O)[C@H](CCCCNC(=O)COCCOCCNC(=O)COCCOCCNC(=O)CC[C@H](NC(=O)CC[C@H](NC(=O)CCCCCCCCCCCCCCCCCCC(=O)O)C(=O)O)C(=O)O)NC(=O)[C@H](C)NC(=O)[C@H](CCC(N)=O)NC(=O)[C@H](CCC(=O)O)NC(=O)[C@H](CCCNC(=N)N)NC(=O)[C@H](C)NC(=O)[C@H](C)NC(=O)[C@H](CCCNC(=N)N)NC(=O)[C@H](C)NC(=O)[C@H](CCCNC(=N)N)NC(=O)[C@H](C)NC(=O)[C@H](CCC(N)=O)NC(=O)[C@H](CCCNC(=N)N)NC(=O)[C@H](CC(C)C)NC(=O)[C@H](CC(C)C)NC(=O)[C@@H](NC(=O)[C@H](CCC(N)=O)NC(=O)[C@H](CC(C)C)NC(=O)[C@H](CC(C)C)NC(=O)CNC(=O)[C@@H](NC(=O)[C@@H]1CCCN1C(=O)[C@@H](NC(=O)[C@H](CC(=O)O)NC(=O)[C@H](CC(C)C)NC(=O)[C@H](CO)NC(=O)[C@H](CC(C)C)NC(=O)[C@@H](NC(=O)[C@@H](NC)[C@@H](C)CC)C(C)C)C(C)C)[C@@H](C)CC)[C@@H](C)CC)[C@@H](C)O)[C@@H](C)CC)C(=O)N[C@@H](C)C(=O)N[C@@H](CCC(=O)O)C(=O)N[C@H](C(N)=O)C(C)C [compound 198] (H-[NMeI]VLSLDVPIGLLQILLRQARARAAREQAK([AEEA-AEEA-γGlu-γGlu-C20 diacid])TN[Aib]EI[Nle]AEV-NH2) |
| – | – | 392 | 1.3 | CC[C@H](C)[C@H](NC)C(=O)N[C@H](C(=O)N[C@@H](CC(C)C)C(=O)N[C@@H](CO)C(=O)N[C@@H](CC(C)C)C(=O)N[C@@H](CC(=O)O)C(=O)N[C@H](C(=O)N1CCC[C@H]1C(=O)N[C@H](C(=O)NCC(=O)N[C@@H](CC(C)C)C(=O)N[C@@H](CC(C)C)C(=O)N[C@@H](CCC(N)=O)C(=O)N[C@H](C(=O)N[C@@H](CC(C)C)C(=O)N[C@@H](CC(C)C)C(=O)N[C@@H](CCC(=O)O)C(=O)N[C@@H](CCC(N)=O)C(=O)N[C@@H](CCC(=O)O)C(=O)N[C@@H](CCCCN)C(=O)N[C@@H](CCC(N)=O)C(=O)N[C@@H](CCC(=O)O)C(=O)N[C@@H](CCCCN)C(=O)N[C@@H](CCC(=O)O)C(=O)N[C@@H](CCCCN)C(=O)N[C@@H](CCC(N)=O)C(=O)N[C@@H](CCC(N)=O)C(=O)N[C@@H](C)C(=O)N[C@@H](CCCCNC(=O)COCCOCCNC(=O)COCCOCCNC(=O)CC[C@H](NC(=O)CC[C@H](NC(=O)CCCCCCCCCCCCCCCCCCC(=O)O)C(=O)O)C(=O)O)C(=O)N[C@H](C(=O)N[C@@H](CC(N)=O)C(=O)N[C@@H](C)C(=O)N[C@@H](CCC(N)=O)C(=O)N[C@H](C(=O)N[C@@H](CC(C)C)C(=O)N[C@@H](C)C(=O)N[C@@H](CCC(N)=O)C(=O)N[C@H](C(N)=O)C(C)C)[C@@H](C)CC)[C@@H](C)O)[C@@H](C)CC)[C@@H](C)CC)C(C)C)C(C)C [SEQ ID NO: 9, reference compound] (H-[NMeI]VLSLDVPIGLLQILLEQEKQEKEKQQAK([AEEA-AEEA-γGlu-γGlu-C20 diacid])TNAQILAQV-NH2) |
| – | – | 419 | 1.6 | CC[C@H](C)[C@H](NC(=O)[C@H](CCC(=O)O)NC(=O)[C@H](C)NC(=O)[C@H](CC(N)=O)NC(=O)[C@@H](NC(=O)[C@@H](NC(=O)[C@H](C)NC(=O)[C@H](CCC(N)=O)NC(=O)[C@H](CCC(=O)O)NC(=O)[C@H](CCCNC(=N)N)NC(=O)[C@H](C)NC(=O)[C@H](C)NC(=O)[C@H](CCCNC(=N)N)NC(=O)[C@H](C)NC(=O)[C@H](CCCNC(=N)N)NC(=O)[C@H](C)NC(=O)[C@H](CCC(N)=O)NC(=O)[C@H](CCC(=O)O)NC(=O)[C@H](CC(C)C)NC(=O)[C@H](CC(C)C)NC(=O)[C@@H](NC(=O)[C@H](CCC(N)=O)NC(=O)[C@H](CC(C)C)NC(=O)[C@H](CC(C)C)NC(=O)CNC(=O)[C@@H](NC(=O)[C@@H]1CCCN1C(=O)[C@@H](NC(=O)[C@H](CC(=O)O)NC(=O)[C@H](CC(C)C)NC(=O)[C@H](CO)NC(=O)[C@H](CC(C)C)NC(=O)[C@@H](NC(=O)[C@@H](NC(=O)[C@@H](N)CCCCNC(=O)COCCOCCNC(=O)COCCOCCNC(=O)CC[C@H](NC(=O)CC[C@H](NC(=O)CC[C@H](NC(=O)CCCCCCCCCCCCCCCCCCC(=O)O)C(=O)O)C(=O)O)C(=O)O)[C@@H](C)CC)C(C)C)C(C)C)[C@@H](C)CC)[C@@H](C)CC)[C@@H](C)O)[C@@H](C)O)C(=O)N[C@@H](CC(C)C)C(=O)N[C@@H](C)C(=O)N[C@@H](CCC(=O)O)C(=O)N[C@H](C(N)=O)C(C)C [SEQ ID NO: 11, reference compound] (H-K([AEEA-AEEA-γGlu-γGlu-γGlu-C20 diacid])IVLSLDVPIGLLQILLEQARARAAREQATTNAEILAEV-NH2) |
| – | – | 400 | 1.4 | CC[C@H](C)[C@H](NC(C)=O)C(=O)N[C@H](C(=O)N[C@@H](CC(C)C)C(=O)N[C@@H](CO)C(=O)N[C@@H](CC(C)C)C(=O)N[C@@H](CC(=O)O)C(=O)N[C@H](C(=O)N1CCC[C@H]1C(=O)N[C@H](C(=O)NCC(=O)N[C@@H](CC(C)C)C(=O)N[C@@H](CC(C)C)C(=O)N[C@@H](CCC(N)=O)C(=O)N[C@H](C(=O)N[C@@H](CC(C)C)C(=O)N[C@@H](CC(C)C)C(=O)N[C@@H](CCC(=O)O)C(=O)N[C@@H](CCC(N)=O)C(=O)N[C@@H](C)C(=O)N[C@@H](CCCNC(=N)N)C(=O)N[C@@H](C)C(=O)N[C@@H](CCCNC(=N)N)C(=O)N[C@@H](C)C(=O)N[C@@H](C)C(=O)N[C@@H](CCCNC(=N)N)C(=O)N[C@@H](CCC(=O)O)C(=O)N[C@@H](CCC(N)=O)C(=O)N[C@@H](C)C(=O)N[C@@H](CCCCNC(=O)COCCOCCNC(=O)COCCOCCNC(=O)CC[C@H](NC(=O)CC[C@H](NC(=O)CCCCCCCCCCCCCCCCCCC(=O)O)C(=O)O)C(=O)O)C(=O)N[C@H](C(=O)N[C@@H](CC(N)=O)C(=O)N[C@@H](C)C(=O)N[C@@H](CCC(=O)O)C(=O)N[C@H](C(=O)N[C@@H](CC(C)C)C(=O)N[C@@H](C)C(=O)N[C@@H](CCC(=O)O)C(=O)N[C@H](C(N)=O)C(C)C)[C@@H](C)CC)[C@@H](C)O)[C@@H](C)CC)[C@@H](C)CC)C(C)C)C(C)C [SEQ ID NO: 8] (Ac-IVLSLDVPIGLLQILLEQARARAAREQAK([AEEA-AEEA-γGlu-γGlu-C20 diacid])TNAEILAEV-NH2) |
